Common to all, as to assay type: biochemical
For test [1], the target named is T1, PDK-1 (Homo sapiens, UniProt O15530).
T1 sequence (O15530 1-556): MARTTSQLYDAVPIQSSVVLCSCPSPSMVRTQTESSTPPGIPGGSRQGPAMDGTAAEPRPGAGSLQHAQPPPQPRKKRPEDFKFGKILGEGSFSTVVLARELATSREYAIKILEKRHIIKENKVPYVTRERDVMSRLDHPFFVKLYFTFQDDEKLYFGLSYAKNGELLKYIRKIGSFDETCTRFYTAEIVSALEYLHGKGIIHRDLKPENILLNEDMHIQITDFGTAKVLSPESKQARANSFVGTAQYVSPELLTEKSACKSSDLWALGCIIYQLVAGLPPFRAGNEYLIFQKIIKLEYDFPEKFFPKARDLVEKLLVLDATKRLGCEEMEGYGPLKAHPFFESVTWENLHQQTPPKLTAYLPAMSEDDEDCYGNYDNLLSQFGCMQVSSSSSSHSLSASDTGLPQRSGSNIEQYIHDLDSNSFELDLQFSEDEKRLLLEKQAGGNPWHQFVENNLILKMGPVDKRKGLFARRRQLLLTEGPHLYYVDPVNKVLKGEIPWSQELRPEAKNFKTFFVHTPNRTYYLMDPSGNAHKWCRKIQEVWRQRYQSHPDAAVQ
The test can be described thus: PDK-1 kinase inhibition ELISA assay (phosphorylation of His6-tagged SGK1 S422D by PDK-1). On the technique in general: In an ELISA, binding on a coated surface is turned into a signal by an enzyme label.

The target in test [2] is PKA (Homo sapiens, UniProt P17612). The test can be described thus: PKA kinase inhibition, Z'-LYTE FRET assay.
Test [3] addresses S6K (Homo sapiens, UniProt P23443). The test can be described thus: S6K kinase inhibition, Z'-LYTE FRET assay. To be noted: 100 μM ATP. The source says:
(§1) The ability of illustrative Benzo[c][2,7]naphthyridine Derivatives to inhibit PKA, Akt1, S6K in vitro can be determined using a Fluorescence Resonance Energy Transfer (FRET) assay, such as a Z′-LYTE™ Kinase Assay Platform, commercially available from Invitrogen (c.f. Rodems et al., ASSAY Drug Devel. Technol. 1:9-19 (2002) and Zhang et al., J. Biomol. Screen. 4:67-73 (1999)). Z′-Lyte™ assay is an in vitro FRET-based assay that utilizes differential sensitivity of phosphorylated and non-phosphorylated peptides to proteolytic cleavage. The peptide substrate (also available from Invitrogen for each of PKA, Akt1 and S6K) is labeled with two different fluorophores, a fluorescence donor at one end of the peptide and a fluorescence acceptor at the other end of the peptide. In the primary kinase reaction, the kinase phosphorylates the peptide substrate in the presence of ATP. In the secondary reaction, a site-specific protease recognizes and cleaves non-phosphorylated peptides, but not phosphorylated peptides. Cleavage disrupts FRET between the donor and acceptor fluorophores on the peptide, whereas uncleaved phosphorylated peptides maintain FRET. Based on a formula that uses the ratio of donor emission (at 460 nm) to acceptor emission (at […]) after excitation of the donor fluorophore at 400 nm, the extent of phosphorylation of the peptide substrates is calculated. IC50 values of illustrative Benzo[c][2,7]naphthyridine Derivatives, shown in Table 12, are calculated using LSW Data Analysis package add-in for Excel (Microsoft).

In test [4] the target is Akt1 (Homo sapiens, UniProt P31749). As to the kind of experiment: Akt1 kinase inhibition, Z'-LYTE FRET assay. The note with it: 100 μM ATP.
Sequence of Akt1 (P31749 whole entry, species assumed): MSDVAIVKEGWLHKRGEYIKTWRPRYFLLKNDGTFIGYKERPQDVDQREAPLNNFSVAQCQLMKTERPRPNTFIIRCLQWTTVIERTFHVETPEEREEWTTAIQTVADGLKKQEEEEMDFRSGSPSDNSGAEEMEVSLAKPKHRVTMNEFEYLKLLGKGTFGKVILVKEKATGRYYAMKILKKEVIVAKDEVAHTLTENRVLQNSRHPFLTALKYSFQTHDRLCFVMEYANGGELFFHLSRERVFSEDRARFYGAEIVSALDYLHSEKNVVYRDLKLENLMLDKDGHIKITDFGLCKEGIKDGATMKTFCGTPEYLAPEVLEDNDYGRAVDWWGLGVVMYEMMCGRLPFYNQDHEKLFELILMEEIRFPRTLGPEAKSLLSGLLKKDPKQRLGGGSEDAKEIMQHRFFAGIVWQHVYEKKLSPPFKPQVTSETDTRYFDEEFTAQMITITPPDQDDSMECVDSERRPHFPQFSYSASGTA
Source text: as §1

The mark [5] stands for this setting: PDK-1 ELISA, Table 11, read-out: Average IC50.

Molecules are shown by their SMILES. Like-named read-outs stand apart in the source and are kept apart here.

Sequence of S6K (P23443 whole entry): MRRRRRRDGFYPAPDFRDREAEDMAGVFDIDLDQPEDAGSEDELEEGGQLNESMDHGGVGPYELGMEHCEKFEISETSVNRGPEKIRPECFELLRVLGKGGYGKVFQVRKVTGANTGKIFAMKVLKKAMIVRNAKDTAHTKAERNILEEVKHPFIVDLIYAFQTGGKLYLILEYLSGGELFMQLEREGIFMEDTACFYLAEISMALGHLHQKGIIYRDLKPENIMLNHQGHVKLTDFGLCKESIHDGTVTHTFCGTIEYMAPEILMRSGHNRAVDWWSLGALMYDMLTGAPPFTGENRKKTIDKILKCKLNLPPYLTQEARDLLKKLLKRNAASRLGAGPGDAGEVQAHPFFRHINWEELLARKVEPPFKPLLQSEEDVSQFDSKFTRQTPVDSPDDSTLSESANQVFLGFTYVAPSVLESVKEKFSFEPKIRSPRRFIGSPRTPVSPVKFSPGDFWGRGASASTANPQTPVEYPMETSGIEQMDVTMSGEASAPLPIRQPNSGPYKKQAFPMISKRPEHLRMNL

As to `COc1cc2ncc3c(N)nc(-c4cncc(OC[C@@H](N)Cc5ccc(F)cc5)c4)cc3c2cc1OCc1ccccc1` [Ia-1, 2-(5-{[(2S)-2-Amino-3-(4-fluorophenyl)propyl]oxy}pyridin-3-yl)-9-(benzyloxy)-8-methoxybenzo[c]-2,7-naphthyridin-4-amine], the IC50 (in general, the concentration needed to halve the response being measured) is > 0.1 µM in test [1] (setting [5]), > 2 µM in test [2] (100 μM ATP) and > 2 µM in test [3].
Regarding `COCCOc1cc2ncc3c(N)nc(-c4cccnc4)cc3c2cc1OC` [Ia-2, 9-Methoxy-8-(2-methoxyethoxy)-2-pyridin-3-ylbenzo[c]-2,7-naphthyridin-4-amine], the values for the IC50 in test [1], in test [2] (100 μM ATP) and in test [3] were 0.043 µM, > 2 µM and 0.542 µM, respectively.
Take `Nc1nc(-c2cncc(OC[C@@H](N)Cc3ccccc3)c2)cc2c1cnc1ccccc12` [Ia-3, 2-(5-{[(2S)-2-Amino-3-phenylpropyl]oxy}pyridin-3-yl)benzo[c]-2,7-naphthyridin-4-amine]: the IC50 in test [1] (setting [5]) came out at 0.104 µM; in test [2] (20 μM ATP), 0.3 µM; in test [2] (100 μM ATP), 0.911 µM; in test [3] it was 1.2 µM.
Turning to `COc1cc2c(cc1OCCCN1CCCC1)ncc1c(N)nc(-n3ccnc3)cc12` [Ia-15, 2-(1H-imidazol-1-yl)-9-methoxy-8-(3-(pyrrolidin-1-yl)propoxy)benzo[c][2,7]naphthyridin-4-amine], the IC50 in test [1] (setting [5]) was 0.498 µM; in test [2] (20 μM ATP), > 10 µM; in test [4], 0.38 µM.
For `COc1cc2c(cc1OCCCN1CCOCC1)ncc1c(N)nc(-n3ccnc3)cc12` [Ia-16, 2-(1H-imidazol-1-yl)-9-methoxy-8-(3-morpholinopropoxy)benzo[c][2,7]naphthyridin-4-amine], the values for the IC50 in test [1] (setting [5]), in test [2] (20 μM ATP) and in test [4] were 0.17 µM, > 10 µM and 0.38 µM, respectively.
On to `CCN1CCN(CCC#Cc2ccc3ncc4c(N)nc(-n5ccnc5)cc4c3c2)CC1` [Ia-18, 9-[4-(4-Ethylpiperazin-1-yl)but-1-yn-1-yl]-2-(1H-imidazol-1-yl)benzo[c]-2,7-naphthyridin-4-amine], for which the figures for the IC50 in test [1] (setting [5]), in test [2] (20 μM ATP) and in test [4] were > 3 µM, > 10 µM and > 10 µM, respectively.
Turning to `COc1cc2c(cc1N1CCC(N3CCCC3)CC1)ncc1c(N)nc(-c3cccnc3)cc12` [Ia-20, 9-methoxy-2-pyridin-3-yl-8-(4-pyrrolidin-1-ylpiperidin-1-yl)benzo[c]-2,7-naphthyridin-4-amine], the IC50 in test [1] (setting [5]) is 0.893 µM; in test [2] (20 μM ATP), > 20 µM; in test [4], 0.3 µM.
On to `CCN1CCN(CC/C=C/c2ccc3c(c2)ncc2c(N)nc(-n4ccnc4)cc23)CC1` [Ia-25, 8-[(1E)-4-(4-ethylpiperazin-1-yl)but-1-en-1-yl]-2-(1H-imidazol-1-yl)benzo[c]-2,7-naphthyridin-4-amine], for which the IC50 in test [1] (setting [5]) came out at 0.116 µM; in test [2] (20 μM ATP), 1.25 µM; in test [4], 0.23 µM.
The corresponding values for `CCOc1cc2ncc3c(N)nc(-n4ccnc4)cc3c2cc1NC(=O)Nc1ccc(N(C)C)cc1` [Ia-27, N-[4-amino-8-ethoxy-2-(1H-imidazol-1-yl)benzo[c]-2,7-naphthyridin-9-yl]-N′-[4-(dimethylamino)phenyl]urea] are 0.617 µM, > 20 µM and 16 µM.
The like results for `CCOc1cc2ncc3c(N)nc(-n4ccnc4)cc3c2cc1NC(C)=O` [Ia-29, N-[4-amino-8-ethoxy-2-(1H-imidazol-1-yl)benzo[c]-2,7-naphthyridin-9-yl]acetamide] were, in that order, 0.385 µM, > 5 µM and > 5 µM.
Regarding `Nc1nc(-n2ccnc2)cc2c1cnc1cc(C#CCCn3ccnc3)ccc12` [Ia-30, 2-(1H-imidazol-1-yl)-8-[4-(1H-imidazol-1-yl)but-1-yn-1-yl]benzo[c]-2,7-naphthyridin-4-amine], the figures for the IC50 in test [1] (setting [5]), in test [2] (20 μM ATP) and in test [4] were 0.179 µM, > 20 µM and 15 µM, respectively.
The like results for `COc1cc2c(cc1OCC1CCN(C)CC1)ncc1c(N)nc(-c3cnccn3)cc12` [Ia-32] were, in that order, 0.754 µM, > 20 µM and 0.25 µM.
Regarding `COc1cc2c(cc1OCc1ccccc1)ncc1c(N)nc(-n3ccnc3)cc12` [Ia-34, 8-(Benzyloxy)-2-(1H-imidazol-1-yl)-9-methoxybenzo[c]-2,7-naphthyridin-4-amine], the IC50 is 0.193 µM in test [1] (setting [5]), > 20 µM in test [2] (20 μM ATP) and 0.18 µM in test [4].
The like results for `CCN1CCN(CCC#Cc2ccc3c(c2)ncc2c(N)nc(-n4ccnc4)cc23)CC1` [Ia-35, 8-[4-(4-ethylpiperazin-1-yl)but-1-yn-1-yl]-2-(1H-imidazol-1-yl)benzo[c]-2,7-naphthyridin-4-amine] were, in that order, 0.493 µM, 6 µM and 2.9 µM.
The corresponding values for `COCCOc1cc2ncc3c(N)nc(-n4cnc(-c5ccccc5)c4)cc3c2cc1OC` [Ia-41, 9-Methoxy-8-(2-methoxyethoxy)-2-(4-phenyl-1H-imidazol-1-yl)benzo[c]-2,7-naphthyridin-4-amine] are 2.03 µM, > 20 µM and 18 µM.
The like results for `COCCOc1cc2ncc3c(N)nc(-n4cnc(C)c4)cc3c2cc1OC` [Ia-42, 9-Methoxy-8-(2-methoxyethoxy)-2-(4-methyl-1H-imidazol-1-yl)benzo[c]-2,7-naphthyridin-4-amine] were, in that order, 0.108 µM, > 20 µM and 0.35 µM.
Take `CCOc1cc2ncc3c(N)nc(-c4cccnc4)cc3c2cc1OCC` [Ia-46, 8,9-Diethoxy-2-pyridin-3-ylbenzo[c]-2,7-naphthyridin-4-amine]: the IC50 in test [1] is 0.074 µM; in test [2] (20 μM ATP) it was > 20 µM; in test [4], 0.2 µM.
Consider `COc1cc2ncc3c(N)nc(-c4cncc(OC[C@H](N)Cc5cccc(C(F)(F)F)c5)c4)cc3c2cc1OC` [Ib-28, 2-[5-({(2R)-2-amino-3-[3-(trifluoromethyl)phenyl]propyl}oxy)pyridin-3-yl]-8,9-dimethoxybenzo[c]-2,7-naphthyridin-4-amine], for which the IC50 came out at 0.021 µM in test [1] (setting [5]) and 0.763 µM in test [3].
The corresponding values for `COc1cc2ncc3c(N)nc(-c4cncc(OC[C@@H](N)Cc5cccc(Cl)c5)c4)cc3c2cc1OC` [Ib-29, 2-(5-{[(2S)-2-amino-3-(3-chlorophenyl)propyl]oxy}pyridin-3-yl)-8,9-dimethoxybenzo[c]-2,7-naphthyridin-4-amine] are 0.008 µM and 0.076 µM.
Regarding `COc1cc2ncc3c(N)nc(-c4cncc(OC[C@@H](C)N)c4)cc3c2cc1OC` [Ib-30, 2-(5-{[(2R)-2-aminopropyl]oxy}pyridin-3-yl)-8,9-dimethoxybenzo[c]-2,7-naphthyridin-4-amine], the IC50 came out at 0.002 µM in test [1] (setting [5]) and 0.097 µM in test [3].
The corresponding values for `COc1cc2ncc3c(N)nc(-c4cncc(OC[C@H](C)N)c4)cc3c2cc1OC` [Ib-31, 2-(5-{[(2S)-2-aminopropyl]oxy}pyridin-3-yl)-8,9-dimethoxybenzo[c]-2,7-naphthyridin-4-amine] are 0.006 µM and 0.235 µM.
For `COc1cc2ncc3c(N)nc(-c4cncc(OC[C@@H](N)Cc5ccc(OCc6ccccc6)cc5)c4)cc3c2cc1OC` [Ib-54, 2-[5-({(2S)-2-amino-3-[4-(benzyloxy)phenyl]propyl}oxy)pyridin-3-yl]-8,9-dimethoxybenzo[c]-2,7-naphthyridin-4-amine], the IC50 in test [1] (setting [5]) was 0.212 µM; in test [2] (20 μM ATP) it was > 10 µM; in test [4], 3 µM.
The corresponding values for `COc1cc2ncc3c(N)nc(-n4cnc(CO)c4)cc3c2cc1OC` [Ib-69, [1-(4-Amino-8,9-dimethoxybenzo[c]-2,7-naphthyridin-2-yl)-1H-imidazol-4-yl]methanol] are 0.205 µM, > 20 µM and 2.8 µM.

Source of the values: patent US20080293712A1, “Benzo[C][2,7]Naphtyridine Derivatives, Methods of Making Thereof and Methods of Use Thereof” (WYETH, priority 2007, published 2008).
